Reference: ChEMBL document CHEMBL1201862, “PubChem BioAssay data set” (2004)
The source made the active and inactive calls.

Assays:
Leucine aminopeptidase = target: T1, Leucine aminopeptidase (Plasmodium falciparum 3D7, UniProt Q8IL11); assay: P. falciparum M17LAP inhibitors, primary screen, biochemical, fluorogenic H-Leu-NHMec substrate, 1536-well (AID 1619); assay type: functional
T1 sequence (Q8IL11 whole entry): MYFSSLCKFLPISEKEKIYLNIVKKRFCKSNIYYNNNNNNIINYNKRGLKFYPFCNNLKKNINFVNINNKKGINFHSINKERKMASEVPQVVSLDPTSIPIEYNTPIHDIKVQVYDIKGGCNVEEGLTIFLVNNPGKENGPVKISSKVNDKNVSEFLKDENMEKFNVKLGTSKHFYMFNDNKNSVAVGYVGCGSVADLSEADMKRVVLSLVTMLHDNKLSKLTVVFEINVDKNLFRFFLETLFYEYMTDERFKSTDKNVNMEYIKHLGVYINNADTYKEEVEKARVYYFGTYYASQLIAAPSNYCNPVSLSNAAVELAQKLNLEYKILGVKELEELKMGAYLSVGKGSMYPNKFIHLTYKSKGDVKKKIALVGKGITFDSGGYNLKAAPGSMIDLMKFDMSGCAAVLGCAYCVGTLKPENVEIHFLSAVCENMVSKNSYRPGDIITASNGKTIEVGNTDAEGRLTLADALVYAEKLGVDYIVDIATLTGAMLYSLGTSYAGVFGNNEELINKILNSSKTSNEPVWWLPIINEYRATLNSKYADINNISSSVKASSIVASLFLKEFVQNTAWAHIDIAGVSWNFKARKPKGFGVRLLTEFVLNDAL

NS3 = NS3 (Hepatitis C virus, UniProt A3EZJ3); assay: PubChem AID 2173; design: species or system Hepacivirus hominis
NS3, sequence (A3EZJ3 whole entry): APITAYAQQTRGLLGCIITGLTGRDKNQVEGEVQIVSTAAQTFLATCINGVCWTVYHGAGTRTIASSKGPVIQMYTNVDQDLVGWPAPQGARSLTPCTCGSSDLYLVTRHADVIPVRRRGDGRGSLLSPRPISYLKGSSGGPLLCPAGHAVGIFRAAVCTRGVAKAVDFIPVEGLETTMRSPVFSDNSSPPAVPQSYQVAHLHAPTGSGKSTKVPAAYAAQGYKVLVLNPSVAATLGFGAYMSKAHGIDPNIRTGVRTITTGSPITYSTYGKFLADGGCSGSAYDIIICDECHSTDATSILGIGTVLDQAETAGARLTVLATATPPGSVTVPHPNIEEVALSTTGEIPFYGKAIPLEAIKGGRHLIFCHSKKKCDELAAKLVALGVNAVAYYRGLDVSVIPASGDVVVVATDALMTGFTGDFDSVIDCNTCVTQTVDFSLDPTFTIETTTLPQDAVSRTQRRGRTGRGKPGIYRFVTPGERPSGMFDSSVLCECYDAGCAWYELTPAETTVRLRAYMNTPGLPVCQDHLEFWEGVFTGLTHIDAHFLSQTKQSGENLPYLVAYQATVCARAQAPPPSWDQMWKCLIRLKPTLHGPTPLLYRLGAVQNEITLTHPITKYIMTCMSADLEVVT

[1] = viability of uninfected HEp-2 cells – cell-based, HTS, cytotoxicity control for RSV inhibitor project, dose response (AID 2410); assay type: functional; conditions: human respiratory syncytial virus
cells [2] = assay: cells
Bcl-2-like protein 10 = Bcl-2-like protein 10 (Homo sapiens, UniProt Q9HD36); assay: Bcl-B/TR3 peptide binding disruption – biochemical, fluorescence polarization, FITC-TR3 peptide, selectivity assay for Bfl-1 inhibitor project, primary screen (AID 748);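 also: fluorescence polarization from a fluorescein-labelled TR3 peptide binding purified Bcl-B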
Bcl-2-like protein 10, sequence (Q9HD36 whole entry): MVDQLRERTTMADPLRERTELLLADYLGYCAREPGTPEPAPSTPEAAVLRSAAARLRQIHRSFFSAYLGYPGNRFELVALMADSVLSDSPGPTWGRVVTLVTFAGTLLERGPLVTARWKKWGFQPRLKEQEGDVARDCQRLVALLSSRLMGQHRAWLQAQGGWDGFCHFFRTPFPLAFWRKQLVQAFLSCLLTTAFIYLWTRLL

[3] = target: Glyceraldehyde-3-phosphate dehydrogenase (Homo sapiens, UniProt P04406)
Glyceraldehyde-3-phosphate dehydrogenase, sequence (P04406 whole entry): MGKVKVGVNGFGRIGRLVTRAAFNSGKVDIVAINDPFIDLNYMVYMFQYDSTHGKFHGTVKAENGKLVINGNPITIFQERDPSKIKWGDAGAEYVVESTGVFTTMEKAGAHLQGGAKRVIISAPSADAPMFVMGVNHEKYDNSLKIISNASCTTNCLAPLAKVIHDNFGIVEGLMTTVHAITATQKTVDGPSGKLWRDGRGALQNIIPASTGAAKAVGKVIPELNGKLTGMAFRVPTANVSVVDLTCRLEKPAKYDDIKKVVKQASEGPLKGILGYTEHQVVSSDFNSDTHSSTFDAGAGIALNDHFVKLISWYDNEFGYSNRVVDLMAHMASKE

Bcl-2-related protein A1 [4] = target: T2, Bcl-2-related protein A1 (Mus musculus, UniProt Q07440); assay: small-molecule antagonists of Bfl-1/BH3 interaction – biochemical, TR-FRET, mouse Bfl-1, confirmation (AID 621);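 also: TR-FRET binding of GST-Bfl-1 to FITC-labelled Bid peptide via terbium antibody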
T2 sequence (Q07440 whole entry): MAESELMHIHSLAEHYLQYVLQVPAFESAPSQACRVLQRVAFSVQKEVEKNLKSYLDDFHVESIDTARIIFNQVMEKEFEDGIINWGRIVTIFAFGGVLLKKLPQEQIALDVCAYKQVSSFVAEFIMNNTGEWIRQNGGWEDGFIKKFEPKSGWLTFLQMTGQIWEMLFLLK

Bcl-2-related protein A1 [5] = target: T2, Bcl-2-related protein A1; assay: Bfl-1 binding inhibitors, SAR follow-up, biochemical, fluorescence polarization (AID 1070)
[6] = luciferase reporter signal suppression in cells – H4 neuroglioma cells, luminescence, dose response (AID 1990); assay type: functional, cell-based
[7] = luciferase reporter signal reduction – luminescence, H4-C neuroglioblastoma cells, dose response (AID 2458); assay type: functional, cell-based;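 also: H4 neuroglioblastoma cells stably carrying a luciferase reporter gene fusion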
cells [8] = assay type: functional, cell-based
[9] = Luminescence Cell-Based Dose Response HTS to Identify Inhibitors of 5'UTR Stem-Loop Driven Prion Protein mRNA Translation in H4 Neuroglioblastoma Cells. [Related pubchem assays: 1827 (Project Summary), 1813 (Primary HTS)]; assay type: functional
[10] = alpha-synuclein stem-loop luciferase translation blockers – H4 neuroglioma cells, luminescence, confirmation (AID 1988); assay type: functional, cell-based
[11] = alpha-synuclein stem-loop translation blockers – luminescence, H4 neuroglioblastoma cells, dose confirmation, confirmation (AID 2454); assay type: functional, cell-based;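 also: H4 neuroglioblastoma cells carrying an alpha-synuclein 5'UTR luciferase reporter; potency for inhibition of the luciferase signal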
[12] = target: Luciferin 4-monooxygenase (Photinus pyralis, UniProt P08659); assay: Counter Screen for Luciferase-based Assay Positives. [Related pubchem assays: 620, 618, 411 ]
Luciferin 4-monooxygenase, sequence (P08659 whole entry): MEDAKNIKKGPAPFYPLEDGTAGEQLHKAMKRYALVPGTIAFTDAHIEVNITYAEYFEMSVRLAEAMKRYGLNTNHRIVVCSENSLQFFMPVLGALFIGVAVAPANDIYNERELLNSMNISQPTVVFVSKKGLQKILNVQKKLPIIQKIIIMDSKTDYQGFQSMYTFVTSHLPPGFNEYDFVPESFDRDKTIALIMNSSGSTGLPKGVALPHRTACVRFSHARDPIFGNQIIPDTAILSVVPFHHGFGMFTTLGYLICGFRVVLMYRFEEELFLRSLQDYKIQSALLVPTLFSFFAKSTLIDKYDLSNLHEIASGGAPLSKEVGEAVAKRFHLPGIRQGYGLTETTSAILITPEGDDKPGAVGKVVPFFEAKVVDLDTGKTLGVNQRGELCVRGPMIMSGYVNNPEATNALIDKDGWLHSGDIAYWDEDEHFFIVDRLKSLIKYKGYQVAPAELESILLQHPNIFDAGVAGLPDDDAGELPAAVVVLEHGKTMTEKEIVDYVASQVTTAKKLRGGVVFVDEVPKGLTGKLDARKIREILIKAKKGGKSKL

[13] = target: T3, Microphthalmia-associated transcription factor (Homo sapiens, UniProt O75030); assay: reducers of TRPM1 reporter luminescence, concentration series – cell-based, SK-MEL-5, cherry-picked, set 3, MITF inhibitor project, dose response (AID 493073); assay type: functional;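 also: SK-MEL-5 melanoma cells with luciferase driven by the MITF target TRPM1 promoter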
T3 sequence (O75030 whole entry): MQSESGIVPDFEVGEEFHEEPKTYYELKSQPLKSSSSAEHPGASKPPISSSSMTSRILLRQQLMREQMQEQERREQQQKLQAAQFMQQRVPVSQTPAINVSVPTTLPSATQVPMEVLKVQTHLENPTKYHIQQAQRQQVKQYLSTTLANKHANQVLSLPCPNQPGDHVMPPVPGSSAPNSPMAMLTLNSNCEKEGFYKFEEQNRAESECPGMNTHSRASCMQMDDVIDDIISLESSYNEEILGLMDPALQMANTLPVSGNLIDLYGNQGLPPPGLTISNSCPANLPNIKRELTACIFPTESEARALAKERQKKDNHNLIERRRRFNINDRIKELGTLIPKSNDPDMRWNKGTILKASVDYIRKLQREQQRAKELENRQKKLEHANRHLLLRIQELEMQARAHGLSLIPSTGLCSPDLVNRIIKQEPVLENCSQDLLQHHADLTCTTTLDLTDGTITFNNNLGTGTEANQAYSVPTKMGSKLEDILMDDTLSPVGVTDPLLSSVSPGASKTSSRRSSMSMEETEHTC

HT-1080 = assay: HT1080 cell viability loss – fluorescence readout (AID 620); assay type: functional, cell-based; conditions: Homo sapiens
[14] = HEK-293T cell viability reduction – luminescence, B-cell screen hits, cytotoxicity control for BCR NF-kB inhibitor project, dose response (AID 489021); assay type: functional, cell-based;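 also: HEK-293T cells carrying an NF-kB luciferase reporter; cells exposed to compound for about 14 hours before viability readout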
[15] = blockers of HIV-1 envelope-mediated cell-cell fusion – cherry-pick, dose response (AID 652057); assay type: functional, cell-based
[16] = blockers of HIV-1 ZM109 envelope-driven cell-cell fusion – HeLa effector, CEM target cells, luciferase, cherry-pick, dose response (AID 652058); assay type: functional, cell-based;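 also: luciferase signal from HIV-1 Env mediated cell-cell fusion of effector and target cells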
[17] = off-target signal loss in HeLa-CEM21 co-culture – HeLa F-luc CTL cells, cherry-picked, counter-screen for HIV-1 Env fusion inhibitor project, dose response (AID 652040); assay type: functional, cell-based;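 also: potency for signal decrease marking cytotoxic or nonspecific inhibition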
[18] = HIV-1 AD8 envelope cell-cell fusion blockers – cherry-pick, dose response (AID 652062); assay type: functional, cell-based;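 also: luciferase signal from cell-cell fusion driven by HIV-1 clade B AD8 Env; potency is for inhibitors of fusion seen as a drop in luminescence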
BJ [19] = assay: BJ-TERT fibroblast viability loss – cell-based, RAS-independent, luminescence, dose response (AID 1933); assay type: functional; conditions: Homo sapiens
BJ [20] = assay: cells; assay type: functional, cell-based; conditions: Homo sapiens
BJ [21] = assay: BJ-TERT-LT-ST fibroblast viability loss – cell-based, RAS-independent, luminescence, dose response (AID 1935); assay type: functional; conditions: Homo sapiens;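 also: BJ fibroblasts immortalized with TERT plus LT and ST oncogenes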
[22] = DRD fibroblast viability loss – cell-based, non-viral oncogenic, luminescence, dose response (AID 1934); assay type: functional; conditions: Homo sapiens
[23] = HEK-293T viability loss after treatment – luminescence, T-cell screen hits, cytotoxicity control for TCR NF-kB inhibitor project, dose response (AID 489026); assay type: functional, cell-based;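 also: cells exposed to compound about 14 hours before the viability readout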
cells [24] = assay type: functional, cell-based; remark: listed apart in the source
[25] = target: T4, Nuclear receptor subfamily 0 group B member 1 (Homo sapiens, UniProt P51843); assay type: functional, cell-based;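 also: HEK293T cells transfected with SF-1 and DAX-1 plus StAR promoter luciferase reporter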
T4 sequence (P51843 whole entry): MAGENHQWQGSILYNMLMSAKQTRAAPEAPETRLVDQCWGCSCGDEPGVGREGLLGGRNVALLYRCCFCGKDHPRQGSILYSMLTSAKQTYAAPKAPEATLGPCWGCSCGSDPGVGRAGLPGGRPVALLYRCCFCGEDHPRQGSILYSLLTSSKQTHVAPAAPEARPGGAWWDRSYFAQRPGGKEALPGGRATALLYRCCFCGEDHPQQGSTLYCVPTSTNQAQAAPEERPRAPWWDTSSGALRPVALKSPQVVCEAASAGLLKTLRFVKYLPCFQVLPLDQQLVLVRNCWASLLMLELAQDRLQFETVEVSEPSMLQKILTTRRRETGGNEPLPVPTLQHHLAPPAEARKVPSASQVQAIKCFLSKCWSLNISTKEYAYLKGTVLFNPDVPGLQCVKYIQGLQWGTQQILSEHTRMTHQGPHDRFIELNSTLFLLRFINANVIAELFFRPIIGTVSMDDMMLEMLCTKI

Paired box protein Pax-8 = Paired box protein Pax-8 (Homo sapiens, UniProt Q06710); assay: PAX8 transcriptional activity inhibition in RMG-I – RMG-I cells, luciferase, cherry-pick, dose response (AID 687027); assay type: functional, cell-based;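 also: luciferase reporter driven by Pax8 target thyroperoxidase promoter measured by SteadyGlo luminescence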
Paired box protein Pax-8, sequence (Q06710 whole entry): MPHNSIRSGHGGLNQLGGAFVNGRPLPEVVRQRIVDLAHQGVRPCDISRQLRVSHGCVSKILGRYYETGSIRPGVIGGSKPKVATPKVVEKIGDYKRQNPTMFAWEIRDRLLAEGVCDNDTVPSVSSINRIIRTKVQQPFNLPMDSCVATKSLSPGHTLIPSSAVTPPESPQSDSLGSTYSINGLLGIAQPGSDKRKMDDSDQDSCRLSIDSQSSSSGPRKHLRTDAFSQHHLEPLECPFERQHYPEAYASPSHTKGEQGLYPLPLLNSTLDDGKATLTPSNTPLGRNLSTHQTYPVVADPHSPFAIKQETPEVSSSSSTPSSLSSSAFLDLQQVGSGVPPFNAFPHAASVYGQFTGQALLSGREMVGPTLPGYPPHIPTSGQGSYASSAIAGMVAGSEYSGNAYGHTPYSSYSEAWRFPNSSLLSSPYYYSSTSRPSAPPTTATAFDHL

Large T antigen = Large T antigen (Simian virus 40, UniProt P03070); assay type: functional, Betapolyomavirus macacae;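 also: Confirmatory-stage PubChem screen for compounds that inhibit SV40 T antigen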
Large T antigen, sequence (P03070 whole entry): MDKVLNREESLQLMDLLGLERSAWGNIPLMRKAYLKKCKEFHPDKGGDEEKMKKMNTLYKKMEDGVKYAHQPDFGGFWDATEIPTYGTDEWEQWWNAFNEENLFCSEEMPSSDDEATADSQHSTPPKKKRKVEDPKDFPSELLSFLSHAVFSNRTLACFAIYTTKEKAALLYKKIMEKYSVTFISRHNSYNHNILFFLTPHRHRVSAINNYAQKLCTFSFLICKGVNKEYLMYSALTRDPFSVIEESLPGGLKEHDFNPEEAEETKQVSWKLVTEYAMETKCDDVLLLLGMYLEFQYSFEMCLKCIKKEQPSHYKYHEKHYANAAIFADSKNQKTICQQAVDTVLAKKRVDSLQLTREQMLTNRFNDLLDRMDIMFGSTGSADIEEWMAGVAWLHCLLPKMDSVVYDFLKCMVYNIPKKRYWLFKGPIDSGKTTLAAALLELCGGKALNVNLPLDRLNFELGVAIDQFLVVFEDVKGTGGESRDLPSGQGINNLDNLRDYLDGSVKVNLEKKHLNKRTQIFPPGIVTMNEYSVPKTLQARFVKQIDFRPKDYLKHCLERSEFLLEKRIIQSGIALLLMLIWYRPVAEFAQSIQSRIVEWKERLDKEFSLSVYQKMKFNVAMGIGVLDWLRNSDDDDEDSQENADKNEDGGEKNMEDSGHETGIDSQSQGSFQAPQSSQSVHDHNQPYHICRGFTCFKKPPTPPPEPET

[26] = target: T5, Long-chain-fatty-acid--AMP ligase FadD28 (Mycobacterium tuberculosis, UniProt P9WQ59); assay: Fluorescence polarization aasay to screen for inhibitors that compete for the binding of FadD28 to a bisubstrate Measured in Biochemical System Using Plate Reader - 2147-01_Inhibitor_Dose_CherryPick_Activity.; assay type: functional, Mycobacterium tuberculosis H37Rv
T5 sequence (P9WQ59 whole entry): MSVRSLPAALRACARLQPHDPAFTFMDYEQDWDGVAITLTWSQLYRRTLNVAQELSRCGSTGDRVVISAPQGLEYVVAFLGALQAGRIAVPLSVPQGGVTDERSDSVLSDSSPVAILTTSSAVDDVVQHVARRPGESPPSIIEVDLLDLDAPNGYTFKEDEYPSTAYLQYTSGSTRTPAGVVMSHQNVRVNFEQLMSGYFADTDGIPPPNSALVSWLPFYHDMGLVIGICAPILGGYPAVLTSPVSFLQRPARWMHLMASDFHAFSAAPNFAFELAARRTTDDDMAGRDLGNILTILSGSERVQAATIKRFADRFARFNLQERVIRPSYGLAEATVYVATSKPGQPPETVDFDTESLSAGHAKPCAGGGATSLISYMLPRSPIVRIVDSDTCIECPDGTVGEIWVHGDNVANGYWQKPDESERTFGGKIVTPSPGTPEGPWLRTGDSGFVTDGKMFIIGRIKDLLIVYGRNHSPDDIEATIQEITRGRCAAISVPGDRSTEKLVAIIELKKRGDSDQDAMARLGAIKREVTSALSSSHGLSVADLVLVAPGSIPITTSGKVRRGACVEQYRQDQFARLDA

N#C/C(=C\c1ccc(O)c(O)c1)S(=O)(=O)c1ccccc1
IC50 (Leucine aminopeptidase): 7.23 µM (active) | IC50 (NS3): 4.39 µM (active)

COc1ccc(C(c2c(NC(=O)c3ccco3)sc(C)c2C)N2CCOCC2)cc1OC (configuration not stated)
CC50 [1]: 46.5 µM (active) | IC50 (cells [2]): 4.07 µM (active)

Cc1c[nH]c2cccc(OCC(O)CNC(C)(C)C)c12 (configuration not stated)
IC50 (Bcl-2-like protein 10): > 100 µM (inactive)

CC1CN(C2=C(Cl)C(=O)N(c3ccc(Cl)c(Cl)c3)C2=O)CCN1c1ccccc1 (configuration not stated)
IC50 [3]: > 100 µM (not active) | IC50 (Bcl-2-related protein A1 [4]): 19.3 µM (active) | IC50 (Bcl-2-related protein A1 [5]): > 100 µM (not active)

O=C(CSc1nnc(-c2ccc(Br)cc2)o1)Nc1cccc(C(=O)O)c1
EC50 [6]: 3.04 µM (active) | EC50 [7]: 0.31 µM (active) | EC50 (cells [8]): 0.934 µM (active) | EC50 [9]: < 0.1 µM (active) | EC50 [10]: < 0.1 µM (active) | EC50 [11]: 0.409 µM (active)

N#Cc1c(NC(=O)CSc2nnc[nH]2)sc2c1CCCC2
IC50 (Leucine aminopeptidase): 4.79 µM (active) | EC50 [12]: 27.8 µM (active) | AC50 [13]: 0.599 µM (active)

COc1ccc(-c2noc(CCCC(=O)O)n2)cc1
EC50 [12]: 3.3 µM (active) | EC50 (HT-1080): > 50 µM (not active) | IC50 [14]: > 80 µM (inactive) | AC50 [15]: 2.26 µM (active) | AC50 [16]: 1.08 µM (active) | AC50 [17]: 1.59 µM (active) | AC50 [18]: 1.1 µM (active)

COc1ccc(NC(=O)C(=O)NCC2CCCN2S(=O)(=O)c2ccc(C)cc2)cc1 (configuration not stated)
EC50 [6]: < 0.1 µM (active) | EC50 [7]: 0.051 µM (active) | EC50 (BJ [19]): 0.625 µM (active) | EC50 (cells [8]): 0.06 µM (active) | EC50 [10]: < 0.1 µM (active) | EC50 (BJ [20]): 11.7 µM (inconclusive) | EC50 (BJ [21]): 0.611 µM (active) | EC50 [22]: 0.484 µM (active) | EC50 [11]: 0.047 µM (active) | IC50 [23]: > 80 µM (inactive) | IC50 (cells [24]): > 67.5 µM (inactive) | IC50 [25]: > 67.5 µM (inactive) | AC50 (Paired box protein Pax-8): 0.709 µM (active)

O=c1c2c(O)cc(CSc3ccc(Cl)cc3)nc2[nH]n1-c1ccccc1
IC50 (Large T antigen): > 100 µM (active) | IC50 (NS3): 5.22 µM (active) | AC50 [26]: 23.4 µM (active)

Cc1cc(O)nc(N/N=C/c2c(C)nn(-c3ccccc3Cl)c2Cl)n1
CC50 [1]: 21.2 µM (active) | IC50 (cells [2]): 41.5 µM (active)
